Where only a bound is given, the exact number is not on record here.

Holding throughout (assay type): cell-based
The subject of assay [1] is colorectal cancer cell line HT-29 cells. As to the kind of experiment: Growth inhibitory effect against cancer cell lines (3H-thymidine uptake), HT-29. As to conditions: Homo sapiens, HT-29, inhibition of 3H-thymidine uptake; test substance 18 hrs, then 3H-thymidine 6 hrs; triplicate. Put shortly: (§1)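 IC50 = concentration reducing ^3H-thymidine incorporation to 50% of DMSO control, measured in triplicate. Compound added 24 hrs after plating (1.0×10^4 cells/well); label (0.25 μCi/well) given after 18 hrs of treatment, followed by 6 hrs further culture and scintillation counting of harvested cells.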

The next assay concerns p27 protein. As to the kind of experiment: p27 protein induction test (Western blotting). Conditions: test substance (0.1 1M), 24 hrs, ACHN cells or HT-29 cells, compared to DMSO, n=2. The protocol: ACHN cells or HT-29 cells were cultured in a 6 well plate at 2.5×10^5 cells/1.8 mL/well for 24 hrs, a test substance ([…]) dissolved in DMSO was added. After 24 hrs, cells were detached using trypsin-EDTA (ethylene diamine tetraacetic acid) and solubilized with NuPAGE LDS sample buffer (Invitrogen). Using an RC DC protein assay kit (BIO-RAD), the protein concentration of the sample was quantitated, and a sample in an amount corresponding to 10 μg of BSA (bovine serum albumin) was analyzed by Western blotting using an anti-p27 antibody. The density of the band stained with the anti-p27 antibody was measured by a densitometer to quantify the amount of p27 protein. As a control, DMSO was used and the test was performed with n=2 and the average protein amount was determined.

In assay [2] the test system is Renal cancer cell line ACHN cell. As to the kind of experiment: Growth inhibitory effect against cancer cell lines (3H-thymidine uptake), ACHN. Conditions: Homo sapiens, ACHN. In a few lines: as §1
For a further assay, the system named is p15 protein. The assay can be described thus: Evaluation of p15 induction activity (Western blotting). Conditions: test substance 0.1 μM, 24 hrs, ACHN cells or HT-29 cells, compared to DMSO, n=2. Put shortly: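 p15 protein quantified by densitometry of anti-p15 Western blots (10 μg protein per lane, mean of n=2). Samples came from HT-29 or ACHN cells given 0.1 μM compound for 24 h after 24 h plating, with DMSO as control.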
Background: A western blot detects proteins with antibodies after separation by electrophoresis.

Turning to `Cn1c(=O)cc(Nc2ccc(Br)cc2F)c2c(=O)n(C3CC3)c(=O)n(-c3cccc(NS(C)(=O)=O)c3)c21` [Example 1-1, N-{3-[5-(4-bromo-2-fluoro-phenylamino)-3-cyclopropyl-8-methyl-2,4,7-trioxo-3,4,7,8-tetrahydro-2H-pyrido[2,3-d]pyrimidin-1-yl]phenyl}-methanesulfonamide], the IC50 (as a rule, the concentration that gives 50% inhibition) in assay [1] is under 10 nM; in assay [2], 10 to 100 nM. Moreover, the fold induction at 0.1 µM in the assay with p27 protein and in the assay with p15 protein was at least 1.5 in each case.
Regarding `Cc1cc(N(C)C)ccc1Nc1cc(=O)n(C)c2c1c(=O)n(C1CC1)c(=O)n2-c1ccccc1` [Example 1-112], the IC50 in assay [1] lay in the range of 10 to 100 nM; in assay [2], 100 to 1000 nM. Besides, the fold induction at 0.1 µM in the assay with p27 protein and in the assay with p15 protein was at least 1.5 in each case.
For the compound `CN(C)c1ccc(Nc2cc(=O)n(C)c3c2c(=O)n(C2CC2)c(=O)n3-c2ccccc2F)cc1` [Example 1-114], the half-maximal inhibitory concentration (IC50) in assay [1] and in assay [2] was 100 to 1000 nM throughout. Also, the fold induction at 0.1 µM with p27 protein and with p15 protein was at least 1.5 throughout.
With `Cn1c(=O)cc(Nc2ccc(Br)cc2F)c2c(=O)n(C3CC3)c(=O)n(-c3ccccc3)c21` [Example 1-152], the IC50 in assay [1] is 10 to 100 nM; in assay [2], 100 to 1000 nM. Besides, the fold induction at 0.1 µM in the assay with p27 protein and in the assay with p15 protein was at least 1.5 each time.
For `Cn1c(=O)c2c(Nc3ccc(Br)cc3F)cc(=O)n(C)c2n(-c2ccccc2)c1=O` [Example 1-185], the half-inhibitory concentration (IC50) in assay [1] lay within 10 to 100 nM; in assay [2], 100 to 1000 nM. The fold induction at 0.1 µM in the assay on p27 protein and in the assay with p15 protein was at least 1.5 in each case.
`Cn1c(=O)cc(Nc2ccc(Br)cc2F)c2c(=O)n(C3CC3)c(=O)n(-c3cccc(N4CCOCC4=O)c3)c21` [Example 1-219]: the IC50 in assay [1] lay within 10 to 100 nM; in assay [2], 100 to 1000 nM. Besides, the fold induction at 0.1 µM in the assay on p27 protein and in the assay with p15 protein was at least 1.5 throughout.
Turning to `Cn1c(=O)cc(Nc2ccc(I)cc2)c2c(=O)n(C3CC3)c(=O)n(-c3ccccc3)c21` [Example 1-221], the 50% inhibitory concentration (IC50) is under 10 nM in assay [1] and 10 to 100 nM in assay [2]. Further, the fold induction at 0.1 µM in the assay on p27 protein and in the assay with p15 protein was at least 1.5 each time.
`C#Cc1ccc(Nc2cc(=O)n(C)c3c2c(=O)n(C2CC2)c(=O)n3-c2ccccc2)cc1` [Example 1-222]: the IC50 in assay [1] fell in the range of 10 to 100 nM; in assay [2] it was 100 to 1000 nM. In addition, the fold induction at 0.1 µM in the assay on p27 protein and in the assay on p15 protein was at least 1.5 throughout.
Consider `CN(C)S(=O)(=O)c1cccc(-n2c(=O)n(C3CC3)c(=O)c3c(Nc4ccc(Br)cc4F)cc(=O)n(C)c32)c1` [Example 1-224], for which the figures for the IC50 in assay [1] and in assay [2] were under 10 nM and 100 to 1000 nM, respectively. In addition, the fold induction at 0.1 µM in the assay with p27 protein and with p15 protein was at least 1.5 each time.
For the compound `CN(C)S(=O)(=O)c1ccc(-n2c(=O)n(C3CC3)c(=O)c3c(Nc4ccc(Br)cc4F)cc(=O)n(C)c32)cc1` [Example 1-226], the IC50 in assay [1] fell in the range of 10 to 100 nM; in assay [2], 100 to 1000 nM. In addition, the fold induction at 0.1 µM with p27 protein and in the assay with p15 protein was at least 1.5 each time.
In the case of `C=Cc1ccc(Nc2cc(=O)n(C)c3c2c(=O)n(C2CC2)c(=O)n3-c2ccccc2)c(F)c1` [Example 1-240], the IC50 in assay [1] and in assay [2] was 10 to 100 nM each time. Further, the fold induction at 0.1 µM in the assay with p27 protein and with p15 protein was at least 1.5 in each case.
With `CCc1ccc(Nc2cc(=O)n(C)c3c2c(=O)n(C2CC2)c(=O)n3-c2ccccc2)c(F)c1` [Example 1-242], the results for the IC50 in assay [1] and in assay [2] were 10 to 100 nM and 100 to 1000 nM, respectively. Further, the fold induction at 0.1 µM with p27 protein and in the assay on p15 protein was at least 1.5 in each case.
With `Cn1c(=O)cc(Nc2ccc(Br)cc2F)c2c(=O)n(C3CC3)c(=O)n(-c3cccc(CCCO)c3)c21` [Example 1-243], the concentration for half-maximal inhibition (IC50) in assay [1] was 10 to 100 nM; in assay [2], 100 to 1000 nM. Moreover, the fold induction at 0.1 µM in the assay with p27 protein and in the assay with p15 protein was at least 1.5 each time.
Regarding `CC(=O)Nc1cccc(-n2c(=O)n(C3CC3)c(=O)c3c(Nc4ccc(Br)cc4F)cc(=O)n(C)c32)c1` [Example 1-245], the concentration for half-maximal inhibition (IC50) is under 10 nM in assay [1] and 10 to 100 nM in assay [2]. Further, the fold induction at 0.1 µM with p27 protein and in the assay on p15 protein was at least 1.5 in each case.
As to `Cn1c(=O)cc(Nc2ccc(Br)cc2F)c2c(=O)n(C3CC3)c(=O)n(-c3cccc(N)c3)c21` [Example 1-264], the figures for the half-maximal inhibitory concentration (IC50) in assay [1] and in assay [2] were 10 to 100 nM and 100 to 1000 nM, respectively. Also, the fold induction at 0.1 µM in the assay with p27 protein and in the assay on p15 protein was at least 1.5 throughout.
For `Cn1c(=O)cc(Nc2ccc(C3CC3)cc2F)c2c(=O)n(C3CC3)c(=O)n(-c3ccccc3)c21` [Example 1-265], the IC50 in assay [1] lay within 10 to 100 nM; in assay [2], 100 to 1000 nM. Also, the fold induction at 0.1 µM in the assay with p27 protein and in the assay with p15 protein was at least 1.5 each time.
With `COCC(=O)Nc1cccc(-n2c(=O)n(C3CC3)c(=O)c3c(Nc4ccc(Br)cc4F)cc(=O)n(C)c32)c1` [Example 1-266], the concentration for half-maximal inhibition (IC50) is under 10 nM in assay [1] and 100 to 1000 nM in assay [2]. Further, the fold induction at 0.1 µM in the assay with p27 protein and in the assay on p15 protein was at least 1.5 throughout.
Consider `CCc1ccc(Nc2cc(=O)n(C)c3c2c(=O)n(C2CC2)c(=O)n3-c2cccc(NS(=O)(=O)CC)c2)c(F)c1` [Example 1-268], for which the IC50 in assay [1] and in assay [2] was 10 to 100 nM in each case. Moreover, the fold induction at 0.1 µM in the assay with p27 protein and in the assay on p15 protein was at least 1.5 each time.
In the case of `CCCS(=O)(=O)Nc1cccc(-n2c(=O)n(C3CC3)c(=O)c3c(Nc4ccc(Br)cc4F)cc(=O)n(C)c32)c1` [Example 1-271], the IC50 was under 10 nM in assay [1] and 10 to 100 nM in assay [2]. Also, the fold induction at 0.1 µM in the assay on p27 protein and with p15 protein was at least 1.5 throughout.
For `CC(C)S(=O)(=O)Nc1cccc(-n2c(=O)n(C3CC3)c(=O)c3c(Nc4ccc(Br)cc4F)cc(=O)n(C)c32)c1` [Example 1-272], the half-inhibitory concentration (IC50) in assay [1] and in assay [2] was 10 to 100 nM throughout. Besides, the fold induction at 0.1 µM with p27 protein and in the assay with p15 protein was at least 1.5 each time.
In the case of `Cn1c(=O)cc(Nc2ccc(Br)cc2F)c2c(=O)n(C3CC3)c(=O)n(-c3cccc(NS(=O)(=O)CCl)c3)c21` [Example 1-282], the IC50 fell in the range of 10 to 100 nM in assay [1] and 100 to 1000 nM in assay [2]. The fold induction at 0.1 µM with p27 protein and with p15 protein was at least 1.5 each time.
Turning to `CNc1cccc(-n2c(=O)n(C3CC3)c(=O)c3c(Nc4ccc(Br)cc4F)cc(=O)n(C)c32)c1` [Example 1-283], the IC50 fell in the range of 10 to 100 nM in assay [1] and 100 to 1000 nM in assay [2]. Moreover, the fold induction at 0.1 µM in the assay on p27 protein and in the assay with p15 protein was at least 1.5 each time.
For the compound `Cn1c(=O)cc(Nc2ccc(Br)cc2F)c2c(=O)n(C3CC3)c(=O)n(-c3cccc(NS(=O)(=O)c4ccccc4)c3)c21` [Example 1-284], the concentration for half-maximal inhibition (IC50) was in the range of 10 to 100 nM in assay [1] and 100 to 1000 nM in assay [2]. In addition, the fold induction at 0.1 µM in the assay with p27 protein and with p15 protein was at least 1.5 each time.
Turning to `CSc1ccc(Nc2cc(=O)n(C)c3c2c(=O)n(C2CC2)c(=O)n3-c2ccccc2)c(F)c1` [Example 1-285], the IC50 in assay [1] and in assay [2] was 10 to 100 nM throughout. The fold induction at 0.1 µM in the assay on p27 protein and with p15 protein was at least 1.5 throughout.
Consider `CSc1ccc(Nc2cc(=O)n(C)c3c2c(=O)n(C2CC2)c(=O)n3-c2cccc(NS(C)(=O)=O)c2)c(F)c1` [Example 1-286], for which the IC50 in assay [1] is under 10 nM; in assay [2], 10 to 100 nM. Also, the fold induction at 0.1 µM in the assay on p27 protein and in the assay on p15 protein was at least 1.5 in each case.
Regarding `CC(C)C(=O)Nc1cccc(-n2c(=O)n(C3CC3)c(=O)c3c(Nc4ccc(Br)cc4F)cc(=O)n(C)c32)c1` [Example 1-287], the IC50 in assay [1] lay in the range of 10 to 100 nM; in assay [2], 100 to 1000 nM. Moreover, the fold induction at 0.1 µM in the assay on p27 protein and in the assay on p15 protein was at least 1.5 throughout.
Consider `CN1CCN(S(=O)(=O)c2cccc(-n3c(=O)n(C4CC4)c(=O)c4c(Nc5ccc(Br)cc5F)cc(=O)n(C)c43)c2)CC1` [Example 1-315], for which the 50% inhibitory concentration (IC50) is 10 to 100 nM in assay [1] and 100 to 1000 nM in assay [2]. Besides, in the assay on p27 protein, the fold induction (in general, the ratio of treated to control signal) at 0.1 µM is at least 1.5.
The matching figures for `Cn1c(=O)cc(Nc2ccc(Br)cc2F)c2c(=O)n(C3CC3)c(=O)n(-c3cccc(S(=O)(=O)N4CCOCC4)c3)c21` [Example 1-316]: 10 to 100 nM, 100 to 1000 nM and at least 1.5.
The matching figures for `CCS(=O)(=O)Nc1cccc(-n2c(=O)n(C3CC3)c(=O)c3c(Nc4ccc(Br)cc4F)n(C)c(=O)c(C)c32)c1` [Example 3-5]: under 10 nM, 10 to 100 nM and at least 1.5.
The matching figures for `CC(=O)Nc1cc(-n2c(=O)n(C3CC3)c(=O)c3c(Nc4ccc(I)cc4F)n(C)c(=O)c(C)c32)ccc1F` [Example 4-99]: under 10 nM, 100 to 1000 nM and at least 1.5.
